Data as given in patent US20060106038A1, “Methods for treating and/or preventing aberrant proliferation of hematopoietic cells” (ICOS CORPORATION, priority 2004, published 2006).
Where two headings read alike, the source gives them in different places.

Key:
[1] = tested on: myeloid and erythroid colony formation; test: Methylcellulose clonogenic assay; type: cell-based; details: PI3Kδ selective inhibitor at 10 μM
AML cells = test: Cell proliferation assay, [3H]-Thymidine incorporation, AML cells; type: cell-based; details: Homo sapiens, 48 h, PI3Kδ selective inhibitor 10 μM, rapamycin 50 ng/ml
Method: Cell proliferation assays were conducted to determine whether PI3K inhibition contributes to AML cell viability. In most PI3K-positive samples tested, the mTOR pathway was activated as assessed by phosphorylation of P70S6K protein on Threonine 389. Thus, proliferation assays were also conducted to determine whether mTOR contributes to AML cell viability. Accordingly, proliferation assays were performed on AML cells with or without the following inhibitor compounds: LY294002, a PI3Kδ selective inhibitor, rapamycin, or a combination of the PI3Kδ selective inhibitor and rapamycin. Cell proliferation was determined by measuring DNA synthesis by [3H]-Thymidine incorporation. Comparative experiments were performed on CD34+ cord blood cells.
For AML cells (obtained as previously described in Example 1), BMMCs were cultured at 3×10^5/ml in alpha medium containing 5% fetal calf serum (FCS) without cytokines for 48 hours, with or without the following inhibitors: LY294002 at 25 μM, PI3Kδ selective inhibitor at 10 μM, rapamycin at 50 ng/ml, or an association of a PI3Kδ selective inhibitor and rapamycin, and incubated in 96-well plates in triplicate. [^3H]-Thymidine was added for a final 6 hour pulse, and the amount of radioactivity incorporated in cells was determined by trichloracetic acid (TCA) precipitation. […] DNA synthesis was measured by [^3H]-Thymidine incorporation after […].

SMILES | inhibition at 10 µM [1] [%] | inhibition at 10 µM (AML cells; PI3K-positive AML samples, read-out: inhibition of proliferation of leukemic cells) [%] | inhibition at 10 µM (AML cells; representative PI3K-negative AML cell sample, read-out: inhibition of proliferation of leukemic cells (mean values)) [%]
O=c1cc(N2CCOCC2)oc2c(-c3ccccc3)cccc12 [LY294002] | 95 |  | 
CO[C@H]1C[C@@H]2CC[C@@H](C)[C@@](O)(O2)C(=O)C(=O)N2CCCC[C@H]2C(=O)O[C@H]([C@H](C)C[C@@H]2CC[C@@H](O)[C@H](OC)C2)CC(=O)[C@H](C)/C=C(\C)[C@@H](O)[C@@H](OC)C(=O)[C@H](C)C[C@H](C)/C=C/C=C/C=C/1C [rapamycin] |  | 64 | 29
